Source: US7268139B2, “Methods of promoting osteogenesis” (Scios, Inc., priority 2002, dated 2007)

Columns and labels:
[1] = test system: closed femur fractures in female retired breeder Sprague-Dawley rats; assay: Closed femur fracture healing in rats, radiographic analysis; type: in vivo, rat; settings: for Radiographic score, Mean: Group C rats, score 0 to 4
Procedure: Closed femur fractures were made in female retired breeder Sprague-Dawley rats. The rats were given oral doses of the p38 MAP kinase inhibitor (compound 25, Table B)(30 mg/kg) once or twice per day and either vehicle only (control) or rofecoxib (Vioxx, 3 mg/kg, once a day) as a positive control for fracture inhibition.
(§1) Retired breeder female Sprague-Dawley rats were purchased from Taconic Farms. The rats were housed in pairs and given food and water ad libitum. A total of 124 rats were purchased for these experiments (Table 4). However, only 65 rats were used for the final set of experiments as described in Table 4. Drugs were first administered to the rats by gavage using PEG300 (Sigma) as a carrier (0.5 ml per kg). Rats were initially gavaged with drugs 6 hours after surgery (between 4 and 6 PM on day 1) and then twice/day afterwards for 5 days (between 6-8 AM and again between 5-7 PM). The p38 MAP kinase inhibitor used in the experiments is compound 25, Table B. Rofecoxib was obtained by pulverizing Vioxx pills (Merck).
(§2) Rats were anesthetized with a ketamine-xylazine mixture. The right hindlimb was shaved, and cleansed with betadine. A medial parapatellar incision was made through the skin and underlying muscle to the distal end of the femur. The patella was dislocated laterally to expose the femoral condyles. A 20 g needle was used to drill a hole into the distal end of the femur, between the condyles, and then used to ream the femoral canal. A 0.81 mm diameter stainless steel wire was then inserted into the femoral condyle and tamped into the proximal end of the femur. The rod was then trimmed as close as possible to the femoral condyles with wire cutters. The incision was closed in two layers with resorbable Vicryl sutures. A mid-shaft transverse fracture was made in the right femur using a three-point bending device as described previously (Bonnarens, F. and Einhorn, T. A., J. Orthop. Res. 2:97-101 (1984)).
Radiographs were made using an HP Faxitron and Kodak MINR2000 mammography film. Radiographs were photographed with and Olympus C-3040 digital camera for figure preparation. The 4 week post-fracture radiographs from all the rats that had survived to 4 weeks in Group C (rats 60-124) and which were not comminuted, infected, or destabilized were scored as follows. One point was assigned to each radiograph in which a cortex of the fracture callus appeared bridged and/or where the cortical bone fracture site appeared to be bridged by new bone. Thus a radiograph could have a minimal score of 0 or a maximal score of 4.

[2] = test system: closed femur fractures in female retired breeder Sprague-Dawley rats; assay: Closed femur fracture healing in rats, torsional mechanical testing; type: in vivo, rat
Procedure: Torsional mechanical testing was performed on the fractured (right) and contralateral (left) femurs from control, rofecoxib (3 mg/kg/day); p38 MAP kinase inhibitor (30 mg/kg/day), and p38 MAP kinase inhibitor (2×30 mg/kg/day). The stabilizing rods were removed from the femurs prior to testing and the femurs were wrapped in saline soaked gauze to prevent dehydration prior to testing. The ends of the femurs were potted in hex nuts with Wood's metal and the peak torque and angle failure determined using an MTS servohydraulic mechanical testing machine and a 20 Nm reaction torque load cell as per standard procedures (Simon, A. M. et al., J. Bone Miner. Res. 17:963-976 (2002)). Femur and fracture callus dimensions and gage length were measured before and after mechanical testing using digital calipers. The values obtained were used to calculate torsional rigidity, and shear stress as described (Simon, A. M. et al., J. Bone Min. Res., in press (2002)). Finally, the data was normalized as the percentage of the fractured femur relative to the contralateral femur for each animal. This helped to reduce animal-to-animal variability.
as §1, §2
Rats with oblique, comminuted, or infected fractures were not used for mechanical testing (see Appendix A). Both femora were removed and cleaned of all soft tissue leaving the fracture callus undisturbed and then immediately processed for mechanical testing. The samples were wrapped in saline soaked gauze to prevent dehydration between steps. Measurements of the femora were taken using digital calipers to determine femur length and external callus dimensions. The intramedullary pin was removed from the fractured femur. The femoral ends were potted in 1-inch hexnuts using a low melt temperature metal (Wood's metal, Alfa Aesar, Ward Mill, Mass.). Once potted, the gage length (L) of each femur was measured. Torsional testing was conducted using a servohydraulic testing machine (MTS, Eden, Praire, Minn.) with a 20 Nm reaction torque cell (Interface, Scottsdale, Ariz.). The testing was carried out to failure at a rate of 2°/sec and a data recording rate of 20 Hz. Both the fractured and intact femora were tested in internal rotation in proper anatomic orientation. The peak torque and angle at failure were calculated from the load-deformation curves. Internal fracture callus dimensions were measured after mechanical testing. […]

[3] = test system: closed femur fractures in female retired breeder Sprague-Dawley rats; assay: Closed femur fracture healing in rats, histology; type: in vivo, rat; settings: for Fracture callus histology: two weeks post-fracture
Procedure: as §1, with “Rats were initially gavaged with drugs 6 hours after surgery (between 4 and 6 PM on day 1) and then twice/day afterwards for 5 days (between 6-8 AM and again between 5-7 PM).” left out
as §2
Femurs were dissected from rats at 2, 4, 6, and 8 weeks as detailed in Appendix A. Soft tissue was dissected from the femurs and the femurs were fixed overnight in buffered formalin. The femurs were then embedded in polymethylmethacrylate (PMMA) following standard procedures. Longitudinal sections (˜200 um thick) were cut from the PMMA blocks and ground and polished to a thickness of approximately 50-100 um. The sections were then stained with Van Gieson's picrofuschin and Stevenel's Blue. […] Sections were photographed with an Olympus BH2 microscope.

fracture healing in rats = assay: Prior experiments: fracture healing in rats treated with a COX-2 inhibitor; type: in vivo, rat
Description: The prior set of experiments examining the effects of COX-2-selective NSAIDs on fracture healing used retired breeder male Sprague-Dawley rats with an average size of approximately 600 g. To stabilize the femur fractures in these animals, a stainless steel rod with a diameter of 1.1 mm was used. This same diameter rod was continually used during the initial phases of this study even though 250-300 g retired breeder female Sprague-Dawley rats were used.

[4] = test system: mouse model of RA (collagen type II arthritis); assay: Murine collagen type II arthritis, early and advanced disease; type: in vivo
Procedure: A p38α MAP kinase inhibitor (compound 162, Table B) was evaluated to determine whether a p38 inhibitor could modulate cartilage and bone destruction in a mouse model of RA. Induction of RA was achieved using bovine type II cartilage (100 ug/kg, subcutaneous on days 0 and 21) and bacterial lipopolysaccharide (50 ug/mouse, intraperitoneal on day 22).
Oral treatment was vehicle alone (1% PEG 400, bid) or the p38 inhibitor (90 mg/kg bid). The duration of treatment was 10 and 20 days in mice with early onset or advanced disease, respectively. Treatment was initiated in mice with early onset or advanced disease. Disease state was determined by clinical scoring performed in a blinded protocol that assigned a maximum per paw value of 3 based upon degree of erythema and swelling observed. Early or advanced disease was judged by clinical scoring, 1.6+0.6 (mean+/−std dev) on day 24 and 9.1±2.6 on day 30, respectively.

[5] = Group C, 4 weeks post-fracture, rofecoxib 3 mg/kg/day
[6] = Groups A and B, 8 weeks post-fx, rofecoxib 3 mg/kg/day
[7] = Group C, 4 weeks post-fracture, 30 mg/kg/day
[8] = Group C, 4 weeks post-fracture, 2×30 mg/kg/day
[9] = Groups A and B (rats 1-57), twice-a-day treated rats
[10] = Groups A and B, 4 weeks post-fx, 30 mg/kg/day
[11] = Groups A and B, 6 weeks post-fx, 30 mg/kg/day
[12] = Groups A and B, 6 weeks post-fx, 2×30 mg/kg/day
[13] = Groups A and B, 8 weeks post-fx, 2×30 mg/kg/day
[14] = advanced disease, 90 mg/kg bid oral, 20 days

`CS(=O)(=O)c1ccc(C2=C(c3ccccc3)C(=O)OC2)cc1` [Rofecoxib, rofecoxib, reference compound] was tested, and the “Radiographic score, Mean” value ([1]; 4 weeks post-fracture, rofecoxib 3 mg/kg oral once a day for 5 days) was 0.83, the “Bridging of the fracture in radiographs” value ([1]; 4 weeks post-fracture, rofecoxib 3 mg/kg once a day) was “little or no bridging was evident” and the “NSS = normalized shear stress” value [2, 5] was 13 ± 9. The “NTR = normalized torsional rigidity” value [2, 5] was 19 ± 9, the “NPT = normalized peak torque” value ([2]; Group C, 4 weeks post-fracture, rofecoxib 3 mg/kg/day, percentage of fractured femur relative to contralateral femur) was 32 ± 3 and the “NPT = normalized peak torque” value [2, 6] was 57 ± 42. The “NSS = normalized shear stress” value [2, 6] was 16 ± 8, the “NTR = normalized torsional rigidity” value [2, 6] was 100 ± 82 and the Fibrous non-unions ([3]; rofecoxib, 5 days of treatment) was “development of fibrous non-unions in some of the rofecoxib treated rats”. The Fracture callus histology ([3]; rofecoxib 3 mg/kg once a day) was “less woven bone formation was observed” and the Fracture healing (fracture healing in rats) was “dramatically impaired”.
With `COc1cc2c(cc1C(=O)N1CCC(Cc3ccc(F)cc3)CC1)c(C(=O)C(=O)N(C)C)cn2C` [compound 25] the “Radiographic scores compared with control and rofecoxib” value ([1]; 4 week post-fracture radiographs, 30 mg/kg once or twice per day) was “significantly higher scores than the control or rofecoxib treated rats”, the “Radiographic score, Mean” value ([1]; 4 weeks post-fracture, 30 mg/kg oral once per day for 5 days) was 3.2 and the “Radiographic score, Mean” value ([1]; 4 weeks post-fracture, 30 mg/kg oral twice per day for 5 days) was 3.75. The “Effect on fracture healing (overall)” value ([1]; oral 30 mg/kg once or twice per day) was “does not negatively affect fracture healing and can actually enhance or accelerate the healing process”, the “Normalized peak torque compared with rofecoxib and control” value ([2]; Group C, 4 weeks post-fracture) was “significantly increased normalized peak torque relative to rofecoxib treated rats but not relative to the control animals” and the “NSS = normalized shear stress” value [2, 7] was 15 ± 8. For the same compound, the “NTR = normalized torsional rigidity” value [2, 7] was 28 ± 24, the “NPT = normalized peak torque” value ([2]; Group C, 4 weeks post-fracture, 30 mg/kg/day, percentage of fractured relative to contralateral femur) was 50 ± 11 and the “NSS = normalized shear stress” value [2, 8] was 10 ± 4. For the same compound, the “NTR = normalized torsional rigidity” value [2, 8] was 61 ± 55, the “NPT = normalized peak torque” value ([2]; Group C, 4 weeks post-fracture, 2×30 mg/kg/day, percentage of fractured relative to contralateral femur) was 48 ± 14 and the normalized peak torque [2, 9] was ~150%. The normalized torsional rigidity [2, 9] was ~150%, the “NPT = normalized peak torque” value [2, 10] was 57 and the “NSS = normalized shear stress” value [2, 10] was 14.1. The “NTR = normalized torsional rigidity” value [2, 10] was 69, the “NPT = normalized peak torque” value [2, 11] was 85 ± 17 and the “NSS = normalized shear stress” value [2, 11] was 36 ± 11. For the same compound, the “NTR = normalized torsional rigidity” value [2, 11] was 109 ± 52, the “NPT = normalized peak torque” value [2, 12] was 97 and the “NSS = normalized shear stress” value [2, 12] was 63. The “NTR = normalized torsional rigidity” value [2, 12] was 126, the “NPT = normalized peak torque” value [2, 13] was 158 ± 46 and the “NSS = normalized shear stress” value [2, 13] was 45 ± 1. The “NTR = normalized torsional rigidity” value [2, 13] was 156 ± 68, the “Histological analysis of fracture healing (summary)” value ([3]; 30 mg/kg once or twice per day) was “enhanced fracture healing by increasing and/or accelerating calcified cartilage formation as well as new bone formation” and the “Amount of osteoclasts within the fracture callus” value ([3]; not quantified) was “appeared to approximate levels found in control rats”. For the same compound, the Fracture callus histology ([3]; 30 mg/kg once per day) was “a near normal amount of woven bone but more than normal amounts of chondrocytes”, the Fracture callus histology ([3]; 30 mg/kg twice per day) was “advanced healing with the fracture gap almost filled with newly formed woven bone” and the “cartilage and bone healing by histological assessment” value [4, 14] was “evidence of cartilage and bone healing”. For the same compound, the “serum cartilage oligomeric matrix protein (COMP)” value [4, 14] was “reduced serum cartilage oligomeric matrix protein”, the osteoclast number ([4]; advanced disease, compared to baseline and vehicle treated groups) was “reduced osteoclast number” and the clinical scoring ([4]; treatment initiated in advanced disease, 90 mg/kg bid oral, 20 days, vehicle 9.1±2.2) was 4.9±1.7.
`C[C@@H]1CN(Cc2ccc(F)cc2)[C@@H](C)CN1C(=O)c1cc2c(C(=O)C(=O)N(C)C)c[nH]c2cc1Cl` [compound 162] was tested, and the “Histological analysis of joint lesion morphology” value ([4]; treatment initiated at onset of disease, 90 mg/kg bid oral, 10 days) was “dramatic reduction in all aspects of joint lesion morphology including reduced cartilage and bone erosions” and the clinical scoring ([4]; treatment initiated at onset of disease, 90 mg/kg bid oral, 10 days, mean ± std dev, vehicle 7.0±3.4) was 2.4±1.5.
